Read-outs that look alike come from different tables or passages of the source. Residues, ends and D or L forms follow the SMILES beside them.
Tests used:
[1] = test system: B-chronic lymphocytic leukemia (CLL) primary cells; conditions: cited from earlier work; for induction of caspase-independent PCD: soluble peptide, CLL primary cells
[2] = test system: MCF-7, HCT-116, BxPC3 and A549 cancer cells; assay: Cell viability and proliferation of tumor cells (cytotoxic assay and direct cell counting); type: cell-based, human; conditions: for viability in all cell strains: 2 hours, 10 to 50 μM peptide concentration
Description: The effects of several cyclic peptides of the invention on the proliferation of tumor cells were evaluated on 5 cell lines (MCF-7, human breast cancer cells; HCT-116, human colon cancer cells; BxPC3, human pancreas cancer cells and A549, human lung cancer cells) by cytotoxic assay and by counting directly the number of cells.
Those cyclic peptides were dissolved in DMSO at the following concentrations: 0, 5, 10, 25, 50 and 100 μM.
Culture media used for these assays are: EMEM=10% SVF for MCF-7 and Wi38; RPMI […] SVF for HCT-116 and BxPC3 and F-12K=10% SVF for A549.
500 cells were seeded in 96-well plates, incubated at 37° C. for 24 hours, and treated by the cyclic peptides at the different concentrations and controls for 2 h.

HCT-116 cells = type: cell-based, human; conditions: for Early Apoptosis, Mean (%) / Late apoptosis, Mean (%): HCT-116 cells; for Early Apoptosis, Mean (%) / Late apoptosis, Mean (%) / Viable, Mean (%): 2 h; for Viable, Mean (%): human
Description: 2.2.2. Cell Death Analysis by Flow Cytometry
To detect possible apoptotic processes, cells were seeded in 35 mm dishes and cultured in media containing each tested cyclic peptide for 2 hours following procedure A or B.
Procedure B: Peptides were incubated for 2 hours on HCT-116 cells. Superkiller Trail (ALX-201-115C-010) was used as a positive pro-apoptotic control. Cells were analyzed by cytofluorometry using FITC Annexin V apoptosis detection kit with 7-AAD from BIOLEGEND (BLE640922).

[3] = test system: Trypsin, Chymotrypsin and Proteinase K; assay: Proteolytic stability (incubation with proteases or in Human Serum); type: in vitro ADME
Description: Proteolytic stability studies were performed by peptides incubation with proteases (such as Trypsin, Chymotrypsin and Proteinase K) or in Human Serum as described earlier (See Karoyan et al. J. Med. Chem. 2016).

[4] = peptide concentration 12.5 (μM)

Compound	Early Apoptosis, Mean (%) (HCT-116 cells; [4])	Late apoptosis, Mean (%) (HCT-116 cells; [4])	Early Apoptosis, Mean (%) (HCT-116 cells; peptide concentration 25 (μM))	Late apoptosis, Mean (%) (HCT-116 cells; peptide concentration 25 (μM))	Early Apoptosis, Mean (%) (HCT-116 cells; peptide concentration 50 (μM))	Late apoptosis, Mean (%) (HCT-116 cells; peptide concentration 50 (μM))	Viable, Mean (%) (HCT-116 cells; 12.5 μM)	Viable, Mean (%) (HCT-116 cells; 25 μM)	Viable, Mean (%) (HCT-116 cells; 50 μM)	stability toward proteases [3]	also measured
K-RFYVVMWK-K (KRFYVVMWKK; listed as Homo sapiens) [Peptide 4N1K, soluble decapeptide that mimics the C-terminal domain of TSP-1]											selective elimination of leukemic B-cells versus healthy B-lymphocytes or resting normal B-cells from CLL patients ([1]; CD47 ligation): specifically eliminates leukemic B-cells; induction of caspase-independent PCD [1]: induces caspase-independent PCD
CSCC[C@@H]1NC(=O)[C@H](C(C)C)NC(=O)[C@H](C(C)C)NC(=O)[C@H](Cc2ccc(O)cc2)NC(=O)[C@H](Cc2ccccc2)NC(=O)[C@H](CCCNC(=N)N)NC(=O)[C@H](CO)NC(=O)[C@H](CO)NC(=O)[C@H](CC(N)=O)NC(=O)[C@H](C(C)C)NC(=O)[C@H](C(C)C)NC(=O)[C@H](CCCCN)NC(=O)[C@H](C(C)C)NC(=O)[C@H](C)NC(=O)[C@H](CC(C)C)NC(=O)CNC(=O)[C@@H]2CCCN2C(=O)[C@H]2CCCN2C(=O)[C@H](CCCCN)NC(=O)[C@H](Cc2c[nH]c3ccccc23)NC1=O [PKTD10-3, —S—R—F—Y—V—V—M—W—K—p—P—G—L—A—V—K—V—V—N—S—] (HELM PEPTIDE1{S.R.F.Y.V.V.M.W.K.[dP].P.G.L.A.V.K.V.V.N.S}$PEPTIDE1,PEPTIDE1,1:R1-20:R2$$$V2.0)	8.17%	4.35%	13.16%	7.06%	13.13%	6.85%	86.83%	79.30%	79.67%		viability in all cell strains [2]: dose-dependent viability decrease
KRFYGGMWKK [Peptide 4NGG, linear negative control peptide, 4N1K mutated in two amino acids]											induction of caspase-independent PCD [1]: unable to induce PCD
CSCC[C@@H]1NC(=O)[C@H](C(C)C)NC(=O)[C@H](C(C)C)NC(=O)[C@H](Cc2ccc(O)cc2)NC(=O)[C@H](Cc2ccccc2)NC(=O)[C@H](CCCNC(=N)N)NC(=O)[C@H](CCCCN)NC(=O)[C@H](Cc2c[nH]c3ccccc23)NC1=O [PKC1, reference compound]	4.54%	2.25%	4.55%	2.56%	4.98%	2.75%	92.95%	92.72%	92.15%		efficiency in inducing cell death on cancer cell lines ([2]; MCF-7, HCT-116, BxPC3, A549): no potency in inducing cell death; efficacy in triggering PCD (HCT-116 cells; from 12.5 to 50 μM): no efficacy
CCCC[C@@H]1NC(=O)[C@H](C(C)C)NC(=O)[C@H](C(C)C)NC(=O)[C@H](Cc2ccc(O)cc2)NC(=O)[C@H](Cc2ccccc2)NC(=O)[C@H](C(C)C)NC(=O)[C@H](C(C)C)NC(=O)[C@H](CCCCN)NC(=O)[C@H](C(C)C)NC(=O)[C@H](CO)NC(=O)[C@H](CC(C)C)NC(=O)[C@@H]2CCCN2C(=O)[C@H]2CCCN2C(=O)[C@H](Cc2c[nH]c3ccccc23)NC1=O [PKD9, —F—Y—V—V—X—W—p—P—L—S—V—K—V—V— X = NLe] (HELM PEPTIDE1{L.S.V.K.V.V.F.Y.V.V.[Nle].W.[dP].P}$PEPTIDE1,PEPTIDE1,1:R1-14:R2$$$V2.0)										fully stable	
CC(C)C[C@@H]1NC(=O)[C@@H]2CCCN2C(=O)[C@H]2CCCN2C(=O)[C@H](Cc2c[nH]c3ccccc23)NC(=O)[C@H](CCCCN)NC(=O)[C@H](C(C)C)NC(=O)[C@H](C(C)C)NC(=O)[C@H](Cc2ccc(O)cc2)NC(=O)[C@H](Cc2ccccc2)NC(=O)[C@H](C(C)C)NC(=O)[C@H](C(C)C)NC(=O)[C@H](CCCCN)NC(=O)[C@H](C(C)C)NC(=O)[C@H](CO)NC1=O [PKD10, —F—Y—V—V—K—W—p—P—L—S—V—K—V—V—] (HELM PEPTIDE1{L.S.V.K.V.V.F.Y.V.V.K.W.[dP].P}$PEPTIDE1,PEPTIDE1,1:R1-14:R2$$$V2.0)										fully stable	
CSCC[C@@H]1NC(=O)[C@H](C(C)C)NC(=O)[C@H](C(C)C)NC(=O)[C@H](Cc2ccc(O)cc2)NC(=O)[C@H](Cc2ccccc2)NC(=O)[C@H](C(C)C)NC(=O)[C@H](C(C)C)NC(=O)[C@H](CCCCN)NC(=O)[C@H](C(C)C)NC(=O)[C@H](CO)NC(=O)[C@H](CC(C)C)NC(=O)[C@@H]2CCCN2C(=O)[C@H]2CCCN2C(=O)[C@H](Cc2c[nH]c3ccccc23)NC1=O [PKD8, —F—Y—V—V—M—W—p—P—L—S—V—K—V—V—] (HELM PEPTIDE1{L.S.V.K.V.V.F.Y.V.V.M.W.[dP].P}$PEPTIDE1,PEPTIDE1,1:R1-14:R2$$$V2.0)										fully stable	
CSCC[C@@H]1NC(=O)[C@H](C(C)C)NC(=O)[C@H](C(C)C)NC(=O)[C@H](Cc2ccc(O)cc2)NC(=O)[C@H](Cc2ccccc2)NC(=O)[C@H](CCCNC(=N)N)NC(=O)[C@H](CO)NC(=O)[C@H](CO)NC(=O)[C@H](CC(N)=O)NC(=O)[C@H](C(C)C)NC(=O)[C@H](C(C)C)NC(=O)[C@H](CCCCN)NC(=O)[C@H](C)NC(=O)[C@H](CO)NC(=O)[C@H](CC(C)C)NC(=O)CNC(=O)[C@@H]2CCCN2C(=O)[C@H]2CCCN2C(=O)[C@H](CCCCN)NC(=O)[C@H](Cc2c[nH]c3ccccc23)NC1=O [PKTD10-4, —S—R—F—Y—V—V—M—W—K—p—P—G—L—S—A—K—V—V—N—S—] (HELM PEPTIDE1{S.R.F.Y.V.V.M.W.K.[dP].P.G.L.S.A.K.V.V.N.S}$PEPTIDE1,PEPTIDE1,1:R1-20:R2$$$V2.0)	9.27%	4.39%	11.91%	5.54%	15.68%	7.53%	85.90%	82.41%	76.52%		viability in all cell strains [2]: dose-dependent viability decrease
